Assay results as given in patent publication US8957016B2, “Tumor activated prodrugs” (Genspera, Inc., priority 2006, dated 2015).
Read-outs that look alike come from different tables or passages of the source. *1 amine or outer side, *2 acyl side, *3 side chain or, on linkers, in order; H or OH if unused. Where a SMILES comes first, the peptide text is derived from it. [ ]: non-standard residue; d: D form. The star is where a group is joined. AMC = Cc1cc(=O)oc2cc(N*)ccc12; Morpholide = C1CN(*)CCO1; CO = O=C([*:1])[*:2]

Key:
[1] = biological target: sarcoplasmic reticulum (SR) and endoplasmic reticulum (ER) Ca2+-ATPase (SERCA) pump; conditions: read-out: apparent dissociation constant; cited from earlier work
PSA = PSA (Homo sapiens, UniProt P07288); assay: Kinetic parameters of fluorescent (AMC) PSA peptide substrates, Lineweaver Burke plots; format: biochemical; conditions: PSA 10 μg/ml, AMC-coupled peptide
Sequence of PSA (P07288 25-261): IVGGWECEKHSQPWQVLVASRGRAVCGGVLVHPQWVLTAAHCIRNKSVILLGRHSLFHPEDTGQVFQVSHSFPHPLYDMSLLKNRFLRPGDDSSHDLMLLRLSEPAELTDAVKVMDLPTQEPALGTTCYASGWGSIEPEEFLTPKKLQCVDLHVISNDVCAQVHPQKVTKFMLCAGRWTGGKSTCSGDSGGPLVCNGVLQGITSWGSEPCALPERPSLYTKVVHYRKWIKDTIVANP
Method: These peptides were then incubated with PSA (10 μg/ml) and Michaelis Menton kinetic parameters determined using Lineweaver Burke plots, Table 3. In this study, Kcat/Km ratios were calculated in order to rank peptides. Newly synthesized peptides contained an acetyl protecting group (Ac) at the amino terminus, whereas the test peptide contained the protecting group morpholinylcarbonyl (Mu).

| Compound | Kd [1] [pM] | Km (PSA) [µM] | kcat (PSA) [s⁻¹] | Km (PSA; read-out: Km) [µM] |
| --- | --- | --- | --- | --- |
| C/C=C(/C)C(=O)O[C@H]1C(C)=C2[C@H]([C@@H]1OC(=O)CCCCCCC)[C@@](C)(OC(C)=O)C[C@H](OC(=O)CCC)[C@@]1(O)[C@H]2OC(=O)[C@@]1(C)O [Thapsigargin] | ≤ 2.2 | – | – | – |
| CC(=O)NCC(=O)N[C@@H](CO)C(=O)N[C@@H](CO)C(=O)N[C@@H](CCCCN)C(=O)N[C@@H](Cc1ccccc1)C(=O)N[C@@H](CCC(N)=O)C(=O)Nc1ccc2c(C)cc(=O)oc2c1 [Ac-GSSKFQ-AMC] (Ac-GSSKFQ-{AMC}) | – | 666 | 0.057 | – |
| CC(=O)NCC(=O)N[C@H](CO)C(=O)N[C@@H](C)C(=O)N[C@@H](CCCCN)C(=O)N[C@@H](Cc1ccc(O)cc1)C(=O)N[C@@H](CCC(N)=O)C(=O)Nc1ccc2c(C)cc(=O)oc2c1 [Ac-GsAKYQ-AMC] (Ac-G[dS]AKYQ-{AMC}) | – | 653 | 0.143 | – |
| CC(=O)NCC(=O)N[C@@H](CO)C(=O)N[C@@H](CO)C(=O)N[C@@H](CCCCN)C(=O)N[C@@H](Cc1ccc(O)cc1)C(=O)N[C@@H](CCC(N)=O)C(=O)Nc1ccc2c(C)cc(=O)oc2c1 [Ac-GSSKYQ-AMC] (Ac-GSSKYQ-{AMC}) | – | 500 | 0.113 | – |
| CC(=O)NCC(=O)N[C@@H](CCCCN)C(=O)N[C@@H](CO)C(=O)N[C@@H](CCC(N)=O)C(=O)N[C@@H](Cc1ccc(O)cc1)C(=O)N[C@@H](CCC(N)=O)C(=O)Nc1ccc2c(C)cc(=O)oc2c1 [Ac-GKSQYQ-AMC] (Ac-GKSQYQ-{AMC}) | – | – | 0.09 | 343 |
| Cc1cc(=O)oc2cc(NC(=O)[C@H](CCC(N)=O)NC(=O)[C@H](CC(C)C)NC(=O)[C@H](CCCCN)NC(=O)[C@H](CO)NC(=O)[C@H](CO)NC(=O)[C@H](Cc3c[nH]cn3)NC(=O)N3CCOCC3)ccc12 [Mu-HSSKLQ-AMC, reference compound] ({Morpholide-CO}-HSSKLQ-{AMC}) | – | – | 0.011 | – |
